Assay results reported in patent US9421237B2, “Tripeptide boronic acid or boronic ester, preparative method and use thereof” (PEKING UNIVERSITY, priority 2009, dated 2016).

How the values were obtained:
[1] = target: T1, 20S proteasome extracted from rat liver, trypsin-like (TL) activity (Rattus norvegicus, UniProt P40112+Q9JHW0); assay: Proteasome inhibition, trypsin-like (TL) activity, fluorescent peptide Z-Ala-Arg-Arg-AMC; assay type: biochemical; conditions: rat liver 20S proteasome, 37° C., 1 h; read-out: T-L (IC50)
T1 construct: 20S proteasome extracted from rat liver; from tissue; host or cells: rat liver
Procedure: (§1) The activities of the proteasome were assayed using fluorescent peptides: Suc-leu-leu-Val-Tyr-AMC (Suc represents succinyl, and AMC represents 7-amino-4-methylcoumarin, purchased from SIGMA) for determining chymotryptic-like (CT-L) activity; Z-Ala-Arg-Arg-AMC (Z represents benzyloxycarbonyl, purchased from Calbiochem) for determining trypsin-like (TL) activity; and Z-leu-leu-Glu-βNA (βNA represents β-naphtylamide, purchased from SIGMA) for determining peptidyl-glutamyl-peptide-hydrolyzing (PGPH) enzyme activity.
(§2) Method for the aforesaid activity assays is as follows: 1 μg of 20S proteasome extracted from rat liver was incubated with a 100 μL solution containing various concentrations of compounds, 50 μM fluorescent peptides and 20 mM Tris-HCl at 37° C. for 1 h, respectively. The fluorescence released from AMC and RNA reagents was measured by a spectrofluorimeter Fluostar OPTIMA and BMG Germany at excitation/emission wavelengths of 380/440 nm and 335/410 nm, respectively. 0.1% DMSO was used as a solvent control. Compared with the fluorescence of solvent control, an inhibition rate was calculated. Said assays used anticancer drug bortezomib (leukemia drug), namely PS341 as compound for positive control.

[2] = target: T2, 20S proteasome extracted from rat liver, peptidyl-glutamyl-peptide-hydrolyzing (PGPH) enzyme activity (Rattus norvegicus, UniProt P28073+Q9JHW0); assay: Proteasome inhibition, PGPH activity, fluorescent peptide Z-leu-leu-Glu-βNA; assay type: biochemical; conditions: rat liver 20S proteasome, 37° C., 1 h
T2 construct: 20S proteasome extracted from rat liver; from tissue; host or cells: rat liver
Procedure: as §1, §2

[3] = tested on: BXPC-3 (human pancreatic cancer cell strain); assay: In vitro anti-tumor activity (IC50), standard MTT method; assay type: cell-based; conditions: 72 h, average of three determinations
Procedure: (§3) HL-60, BXPC-3 and U266 were obtained from the American Type Culture Collection (Manassas, Va.), and BGC-823 (human gastric carcinoma cell strain) was obtained from China Pharmaceutical University.
(§4) Test methods: HL-60 cells were cultured in IMDM medium containing 20% fetal bovine serum at 37° C. in 5% CO2; BGC-823 cells and BXPC-3 cells were cultured in RPMI1640 medium containing 10% fetal bovine serum at 37° C. in 5% CO2; U266 cells were cultured in RPMI1640 medium containing 15% fetal bovine serum at 37° C. in 5% CO2.
(§5) The cell growth was measured by the standard MTT method. A dispersions (150 μL, containing 3000 cells) medium was added into each well of a 96-well plate and allowed to grow, after 24 h, ten kinds of medium (50 μL) containing different concentrations of drugs were added into the corresponding wells, and continued to incubate for 72 h. Then a solution containing 5 mg/ml MTT (20 μL) was added into each well and incubated for another 4 h at 37° C. The plate was then centrifugated at 1000 rpm at 4° C. for 5 min, and the medium in upper layer was carefully discarded. The precipitates were dissolved in 100 μL of DMSO, and absorbance was read with an Infinite M200 (Tecan, Austria) microplate reader at 540 nm.
(§6) The result was expressed as IC50 value, which is the average value of three independent determinations.

[4] = tested on: U266 (multiple myeloma cell strain); assay: as above; assay type: cell-based; conditions: Homo sapiens, U-266, 72 h, average of three determinations
Procedure: as §3, §4, §5, §6

[5] = tested on: HL-60 (promyelocytic leukemia cell strain); assay: as above; assay type: cell-based; conditions: Homo sapiens, 72 h, average of three determinations
Procedure: as §3, §4, §5, §6

[6] = tested on: BGC-823 (human gastric carcinoma cell strain); assay: as above; assay type: cell-based; conditions: 72 h, average of three determinations
Procedure: as §3, §4, §5, §6

[7] = tested on: HL-60 human leukemia cell; assay: Preliminary anti-tumor screening in vitro, MTT method; assay type: cell-based; set-up: key to Test results: +++: inhibition rates at three doses are greater than 50%; ++: inhibition rates at two doses are greater than 50%; +: inhibition rate at one dose is greater than 50%; conditions: HL-60, MTT; for Test results: number of doses with inhibition > 50%; for inhibition at 0.05 µM / inhibition at 0.5 µM / inhibition at 5 µM: Homo sapiens, read-out: Inhibition rate %
Procedure: (§7) The test methods used in this test example is the routine method for anti-tumor activities test in pharmaceutical area, for example, referring to the following reference: (J. Immunol Method, 1983, 65, 55).
(§8) Test models: A: MTT method (HL-60 human leukemia); B: SRB method (BGC-823 human gastric cancer); C: SRB method (Bel-7402 human hepatocarcinoma); D: SRB method (KB human nasopharyngeal carcinoma).
(§9) The aforesaid tests were carried out with the compounds of Examples 1-26 in the present invention, test results are shown in Tables 2-5.

[8] = tested on: KB human nasopharyngeal carcinoma cell; assay: Preliminary anti-tumor screening in vitro, SRB method; assay type: cell-based; set-up: key to Test results: +++: inhibition rates at three doses are greater than 50%; ++: inhibition rates at two doses are greater than 50%; +: inhibition rate at one dose is greater than 50%; conditions: for inhibition at 0.05 µM / inhibition at 0.5 µM / inhibition at 5 µM: Homo sapiens, read-out: Inhibition rate %; for Test results: number of doses with inhibition > 50%
Procedure: as §7, §8, §9

[9] = tested on: Bel-7402 human hepatocarcinoma cell; assay: as above; assay type: cell-based; set-up: key to Test results: +++: inhibition rates at three doses are greater than 50%; ++: inhibition rates at two doses are greater than 50%; +: inhibition rate at one dose is greater than 50%; conditions: Bel-7402, SRB; for Test results: number of doses with inhibition > 50%; for inhibition at 0.05 µM / inhibition at 0.5 µM / inhibition at 5 µM: Homo sapiens, read-out: Inhibition rate %
Procedure: as §7, §8, §9

[10] = tested on: BGC-823 human gastric cancer cell; assay: as above; assay type: cell-based; set-up: key to Test results: +++: inhibition rates at three doses are greater than 50%; ++: inhibition rates at two doses are greater than 50%; +: inhibition rate at one dose is greater than 50%; conditions: BGC-823, SRB; for Test results: number of doses with inhibition > 50%; for inhibition at 0.05 µM / inhibition at 0.5 µM / inhibition at 5 µM: Homo sapiens, read-out: Inhibition rate %
Procedure: as §7, §8, §9

[11] = target: T3, 20S proteasome extracted from rat liver, chymotryptic-like (CT-L) activity (Rattus norvegicus, UniProt P18421+P28075); assay: Proteasome inhibition, chymotryptic-like (CT-L) activity, fluorescent peptide Suc-leu-leu-Val-Tyr-AMC; assay type: biochemical; conditions: rat liver 20S proteasome, 37° C., 1 h
T3 construct: 20S proteasome extracted from rat liver; from tissue; host or cells: rat liver
Procedure: as §1
as §2, with “calculated.” for “calculated. Said assays used anticancer drug bortezomib (leukemia drug), namely PS341 as compound for positive control.”

Structure (SMILES)	melting point	IC50 [1]	IC50 [3]	IC50 [4]	IC50 [5]	IC50 [6]	Test results [7]	inhibition at 0.05 µM [7]	inhibition at 0.5 µM [7]	inhibition at 5 µM [7]	inhibition at 0.05 µM [8]	inhibition at 0.5 µM [8]	inhibition at 5 µM [8]	Test results [8]	Test results [9]	inhibition at 0.05 µM [9]	inhibition at 0.5 µM [9]	inhibition at 5 µM [9]	Test results [10]	inhibition at 0.05 µM [10]	also measured
CC(C)C[C@H](NC(=O)[C@H](Cc1ccccc1)NC(=O)[C@H](Cc1ccc(O)cc1)NC(=O)c1cnccn1)B(O)O [Compound 6d, N-pyrazineformyl-L-tyrosyl-L-phenylalanyl-L-leucine Boronic Acid]	219 to 221 °C	> 20 nM	257 nM	66.2 nM	445 nM	2460 nM	+	-21.1%	-5.04%	87.9%	3.23%	17.3%	96.2%	+	+	1.7%	8.79%	90%	+	4.33%	IC50 [2]: 2.5 ± 1.49 nM; inhibition at 0.5 µM [10]: 46.7%; inhibition at 5 µM [10]: 97.5%; IC50 [11]: 0.263 ± 0.081 nM
CC(C)C[C@H](NC(=O)[C@H](Cc1ccc2ccccc2c1)NC(=O)[C@H](Cc1ccc2ccccc2c1)NC(=O)c1cnccn1)B(O)O [Compound 6h, N-pyrazineformyl-L-naphthylalanyl-L-naphthylalanyl-L-leucine Boronic Acid]	145 to 146 °C	> 20 nM	33.3 nM	195 nM	19.6 nM	2450 nM	++	13.6%	85.7%	88.3%	14.2%	91.8%	97.4%	++	+	6.61%	49.8%	94.8%	++	44.9%	inhibition at 0.5 µM [10]: 88.1%; inhibition at 5 µM [10]: 97.6%; IC50 [11]: 0.335 ± 0.078 nM
CC(C)C[C@H](NC(=O)[C@H](Cc1ccccc1)NC(=O)[C@H](Cc1ccc2ccccc2c1)NC(=O)c1cnccn1)B(O)O [Compound 6b, N-pyrazineformyl-L-naphthylalanyl-L-phenylalanyl-L-leucine Boronic Acid]	134 to 135 °C	> 20 nM	31.8 nM	53 nM	10 nM	2810 nM	++	3.58%	87.3%	88.9%	23.3%	91.5%	96.6%	++	+	22.9%	56.1%	91.6%	+++	56.4%	IC50 [2]: 4.43 ± 1.41 nM; inhibition at 0.5 µM [10]: 93.7%; inhibition at 5 µM [10]: 96.7%; IC50 [11]: 0.417 ± 0.07 nM
CC(C)C[C@H](NC(=O)[C@H](Cc1ccc(O)cc1)NC(=O)[C@H](Cc1ccccc1)NC(=O)c1cnccn1)B(O)O [Compound 6c, N-pyrazineformyl-L-phenylalanyl-L-tyrosyl-L-leucine Boronic Acid]	298 to 300 °C	> 20 nM	445 nM	250 nM	552 nM	5140 nM	+	-16.1%	-8.48%	65%	-13.6%	-5.16%	95.4%	+	+	-2.64%	-4.84%	71.2%	+	2.64%	IC50 [2]: 4.01 ± 1.47 nM; inhibition at 0.5 µM [10]: 25.1%; inhibition at 5 µM [10]: 97.7%; IC50 [11]: 0.395 ± 0.035 nM
